Source: the CheMixHub viscosity set
Where “and” joins values, the source holds several entries; their conditions need not be identical. Equal values may be shown once.

How the values were obtained:
[1] = xn = mol fraction of the nth substance listed; details: 101 kPa

CC(C)CN
Details	viscosity [mPa·s]
298.15 K, 101 kPa	0.563

CC(C)Cc1ccccc1
viscosity [mPa·s]
Details	293.15 K	303.15 K	313.15 K	323.15 K
101 kPa	–	0.899	0.771	–
102 kPa	1.02	0.883	0.769	0.68

CC(O)C(=O)[O-].CN(C)C(=N)[NH+](C)C
101 kPa
Details	viscosity [mPa·s]
303.15 K	13700
308.15 K	7300
313.15 K	3960
318.15 K	2260
323.15 K	1370

CC=CC(=O)OCC
101 kPa
Details	viscosity [mPa·s]
293.15 K	0.8184
298.15 K	0.7576
303.15 K	0.7053
313.15 K	0.6154
323.15 K	0.5471

CCC(C)CC
101.33 kPa
Details	viscosity [mPa·s]
298 K	0.288
298.15 K	0.2909

CCCCCCCC/C=C\CCCCCCCC(=O)O
101 kPa
Details	viscosity [mPa·s]
298.15 K	35.41
323.15 K	14.38

CCCC[N+]1(C)CCCC1.O=S(=O)([N-]S(=O)(=O)C(F)(F)F)C(F)(F)F
viscosity
Details	293.15 K	295.2 K	298.15 K	303.15 K	308.15 K	313.15 K	318.15 K
100 kPa	97.99 mPa·s and 90.17 mPa·s	–	74.9 mPa·s and 70.12 mPa·s	61.58 mPa·s and 56.19 mPa·s	50.81 mPa·s and 45.8 mPa·s	37.99 mPa·s	34.58 mPa·s
101 kPa	86.03 mPa·s and 86.05 mPa·s	–	68.14 mPa·s and 68.16 mPa·s and 70.5 mPa·s	54.03 mPa·s and 54.05 mPa·s	44.37 mPa·s and 44.38 mPa·s	42 mPa·s and 35.75 mPa·s and 35.76 mPa·s	29.71 mPa·s and 29.72 mPa·s
101.3 kPa	–	80 mPa·s	–	–	–	–	–

CCC[NH3+].O=[N+]([O-])[O-]
Details	viscosity [mPa·s]
298 K, 101 kPa	72.61

CCOS(=O)(=O)[O-].CC[n+]1ccn(C)c1
viscosity
Details	298.15 K	303.15 K	308.15 K	313.15 K	318.15 K	323.15 K
100 kPa	96.87 mPa·s and 95.9 mPa·s	76.51 mPa·s and 75.7 mPa·s	61.6 mPa·s	61.6 mPa·s	50.5 mPa·s	35.03 mPa·s
101 kPa	95.9 mPa·s and 95.5 mPa·s	75.63 mPa·s and 75.4 mPa·s	–	49.45 mPa·s	–	34.24 mPa·s

CC[n+]1ccccc1.O=S(=O)([O-])C(F)(F)F
101 kPa
Details	viscosity [mPa·s]
293.15 K	75.2
298.15 K	60.58
303.15 K	48.77
313.15 K	33.78
323.15 K	24.47

CN(c1ccccc1)c1ccccc1
101 kPa
Details	viscosity
293.15 K	7.25 mPa·s
293.25 K	7.22 mPa·s
303.15 K	5.13 mPa·s
313.15 K	3.84 mPa·s and 3.835 mPa·s

Cc1cc(C)cc(C)c1
Details	viscosity
293.15 K, 101 kPa	0.692 mPa·s and 0.721 mPa·s
293.15 K, 101.33 kPa	0.692 mPa·s
293.15 K, 102 kPa	0.699 mPa·s
295.01 K, 101.33 kPa	0.6861 mPa·s
298.15 K, 101 kPa	0.6025 mPa·s and 0.6518 mPa·s
298.15 K, 101.3 kPa	0.656 mPa·s and 0.671 mPa·s
298.15 K, 101.33 kPa	0.6 mPa·s and 0.658 mPa·s
298.38 K, 100 kPa	0.6595 mPa·s
298.38 K, 101.33 kPa	0.6595 mPa·s
302.82 K, 101.33 kPa	0.6227 mPa·s
303 K, 101 kPa	0.6123 mPa·s and 0.6124 mPa·s
303.15 K, 101 kPa	0.633 mPa·s and 0.612 mPa·s
303.15 K, 101.3 kPa	0.616 mPa·s and 0.624 mPa·s
303.15 K, 101.33 kPa	0.564 mPa·s
303.15 K, 102 kPa	0.606 mPa·s
307.35 K, 101.33 kPa	0.584 mPa·s
307.4 K, 101.33 kPa	0.309 mPa·s
307.78 K, 101.33 kPa	0.5879 mPa·s
308.15 K, 101.3 kPa	0.581 mPa·s and 0.589 mPa·s
308.15 K, 101.33 kPa	0.5482 mPa·s and 0.585 mPa·s
308.5 K, 101 kPa	0.597 mPa·s
312.69 K, 100 kPa	0.5561 mPa·s
312.69 K, 101.33 kPa	0.5561 mPa·s
313 K, 101 kPa	0.5482 mPa·s and 0.5481 mPa·s
313.15 K, 102 kPa	0.534 mPa·s
317.53 K, 101.33 kPa	0.5269 mPa·s
318.15 K, 101 kPa	0.3678 mPa·s and 0.52 mPa·s
322.26 K, 101.33 kPa	0.5017 mPa·s
323 K, 101 kPa	0.491 mPa·s and 0.4898 mPa·s
323.15 K, 101 kPa	0.495 mPa·s
323.15 K, 102 kPa	0.476 mPa·s

O=C1CCCN1
101.33 kPa
Details	viscosity [mPa·s]
304.15 K	10.5
308.15 K	9.102
313.15 K	7.687
318.15 K	6.593
323.15 K	5.666

OCCC1CCCCN1 (stereo not given)
Details	viscosity [mPa·s]
313.15 K, 101.3 kPa	77.17

OCCCCO
viscosity
Details	293.15 K	298.15 K	303.15 K	308.15 K	313.15 K	318.15 K	323.15 K
101 kPa	96.5 mPa·s and 96.8 mPa·s	72.8 mPa·s and 72.1 mPa·s and 75.6 mPa·s	54.3 mPa·s and 57.2 mPa·s and 50.53 mPa·s	–	32.8 mPa·s and 35.4 mPa·s and 37.03 mPa·s	–	–
101.3 kPa	92.14 mPa·s	71.91 mPa·s	–	45.04 mPa·s	36.26 mPa·s	29.38 mPa·s	24.18 mPa·s
101.33 kPa	91.27 mPa·s	72.83 mPa·s	56.05 mPa·s	45.06 mPa·s	36.02 mPa·s	30.61 mPa·s	–

[Cl-].[Cl-].[Cl-].[Cl-].[Sn+4]
101 kPa
Details	viscosity
293.15 K	0.951 mPa·s and 0.927 mPa·s
298.15 K	0.919 mPa·s and 0.8145 mPa·s
313.15 K	0.715 mPa·s and 0.758 mPa·s
323.15 K	0.668 mPa·s and 0.683 mPa·s and 0.683 mPa·s

Cc1cc(C)cc(C)c1 + c1ccccc1
viscosity [mPa·s], [1]
Details	x1 = 0.0992	x1 = 0.1997	x1 = 0.3013	x1 = 0.4024	x1 = 0.504	x1 = 0.5997	x1 = 0.7035	x1 = 0.7997	x1 = 0.9018
303 K	0.5455	0.5407	0.5421	0.546	0.5511	0.5579	0.5714	0.5833	0.596
313 K	0.4826	0.4807	0.4822	0.4861	0.4905	0.4999	0.5097	0.5201	0.5336
323 K	0.4308	0.4229	0.4325	0.4374	0.439	0.4507	0.4587	0.4681	0.4791

NC(=O)c1ccccc1 + c1ccncc1
[1], 298.15 K
Details	viscosity [mPa·s]
x1 = 0.0343	1.055
x1 = 0.08504	1.331
